ChEMBL document CHEMBL1201862, “PubChem BioAssay data set” (2004)
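Step 1: Grow cells in 96-well plates. Step 2: Expose to compound for 48 hours at 5 concentrations. Step 3: Interpolate endpoints linearly; if unreached, use highest concentration. GI50 marks 50% less growth.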 Active and inactive are the calls of the source. No stated cut-off is given here; in the data, active = GI50 up to about 1.1 µM and inactive = higher.

Key:
Assay in all cases: NCI tumour cell line growth inhibition, 48 h
DU-145 = tested on: DU-145
UACC-62 = tested on: UACC-62
SK-MEL-2 = tested on: SK-MEL-2
OVCAR-4 = tested on: OVCAR-4
SNB-19 = tested on: SNB-19
MDA-MB-231 = tested on: MDA-MB-231
SF-268 = tested on: SF-268
EKVX = tested on: EKVX
LOX IMVI = tested on: LOX IMVI
U-251 = tested on: U-251
MOLT-4 = tested on: MOLT-4
CCRF-CEM = tested on: CCRF-CEM
COLO 205 = tested on: COLO 205
HCT-15 = tested on: HCT-15
RPMI-8226 = tested on: RPMI-8226
NCI-H226 = tested on: NCI-H226
UO-31 = tested on: UO-31
RXF 393 = tested on: RXF 393
HOP-62 = tested on: HOP-62
OVCAR-3 = tested on: OVCAR-3
NCI-H522 = tested on: NCI-H522
NCI/ADR-RES = tested on: NCI/ADR-RES
MDA-N = tested on: MDA-N
M14 = tested on: M14
Malme-3M = tested on: Malme-3M
NCI-H23 = tested on: NCI-H23
SF-539 = tested on: SF-539
UACC-257 = tested on: UACC-257
HT-29 = tested on: HT-29
OVCAR-5 = tested on: OVCAR-5
SK-MEL-28 = tested on: SK-MEL-28
HCT-116 = tested on: HCT-116
HL-60 = tested on: HL-60
SNB-75 = tested on: SNB-75
CAKI-1 = tested on: CAKI-1
786-0 = tested on: 786-0
TK-10 = tested on: TK-10
A498 = tested on: A498
Hs-578T = tested on: Hs-578T
ACHN = tested on: ACHN
HOP-92 = tested on: HOP-92
PC-3 = tested on: PC-3
A549 = tested on: A549
SF-295 = tested on: SF-295
T47D = tested on: T47D
BT-549 = tested on: BT-549
MDA-MB-435 = tested on: MDA-MB-435
SR = tested on: SR
IGROV-1 = tested on: IGROV-1
OVCAR-8 = tested on: OVCAR-8
SK-OV-3 = tested on: SK-OV-3
SN12C = tested on: SN12C
SK-MEL-5 = tested on: SK-MEL-5
MCF7 = tested on: MCF7
K562 = tested on: K562
HCC 2998 = tested on: HCC 2998
NCI-H460 = tested on: NCI-H460
SW-620 = tested on: SW-620
KM12 = tested on: KM12

Structure (SMILES): CCCCCCCCCCCCOC1C(COCCN2CCCC2)OC2OC(C)(C)OC21 (centres undefined)
- GI50 (DU-145): 10.9 µM (inactive)
- GI50 (UACC-62): 1.91 µM (inactive)
- GI50 (SK-MEL-2): 1.71 µM (inactive)
- GI50 (OVCAR-4): 2.03 µM (inactive)
- GI50 (SNB-19): 2.94 µM (inactive)
- GI50 (MDA-MB-231): 1.5 µM (inactive)
- GI50 (SF-268): 2 µM (inactive)
- GI50 (EKVX): 3.18 µM (inactive)
- GI50 (LOX IMVI): 1.4 µM (inactive)
- GI50 (U-251): 1.73 µM (inactive)
- GI50 (MOLT-4): 1.92 µM (inactive)
- GI50 (CCRF-CEM): 1.86 µM (inactive)
- GI50 (COLO 205): 1.82 µM (inactive)
- GI50 (HCT-15): 1.76 µM
- GI50 (RPMI-8226): 2.52 µM (inactive)
- GI50 (NCI-H226): 2.56 µM (inactive)
- GI50 (UO-31): 1.6 µM (inactive)
- GI50 (RXF 393): 1.57 µM (inactive)
- GI50 (HOP-62): 1.8 µM (inactive)
- GI50 (OVCAR-3): 1.62 µM (inactive)
- GI50 (NCI-H522): 1.23 µM (inactive)
- GI50 (NCI/ADR-RES): 1.73 µM (inactive)
- GI50 (MDA-N): 1.41 µM (inactive)
- GI50 (M14): 1.85 µM (inactive)
- GI50 (Malme-3M): 1.92 µM (inactive)
- GI50 (NCI-H23): 1.72 µM (inactive)
- GI50 (SF-539): 1.76 µM (inactive)
- GI50 (UACC-257): 1.75 µM (inactive)
- GI50 (HT-29): 1.55 µM (inactive)
- GI50 (OVCAR-5): 1.51 µM (inactive)
- GI50 (SK-MEL-28): 1.72 µM (inactive)
- GI50 (HCT-116): 1.75 µM (inactive)
- GI50 (HL-60): 0.927 µM (active)
- GI50 (SNB-75): 1.83 µM (inactive)
- GI50 (CAKI-1): 1.6 µM (inactive)
- GI50 (786-0): 1.68 µM (inactive)
- GI50 (TK-10): 1.66 µM (inactive)
- GI50 (A498): 14 µM (inactive)
- GI50 (Hs-578T): 1.76 µM (inactive)
- GI50 (ACHN): 3.35 µM (inactive)
- GI50 (HOP-92): 1.39 µM (inactive)
- GI50 (PC-3): 1.65 µM (inactive)
- GI50 (A549): 4.42 µM (inactive)
- GI50 (SF-295): 1.86 µM (inactive)
- GI50 (T47D): 2.07 µM (inactive)
- GI50 (BT-549): 1.66 µM (inactive)
- GI50 (MDA-MB-435): 1.76 µM (inactive)
- GI50 (SR): 1.14 µM (inactive)
- GI50 (IGROV-1): 1.72 µM (inactive)
- GI50 (OVCAR-8): 1.64 µM (inactive)
- GI50 (SK-OV-3): 1.63 µM (inactive)
- GI50 (SN12C): 1.82 µM (inactive)
- GI50 (SK-MEL-5): 1.6 µM (inactive)
- GI50 (MCF7): 1.71 µM (inactive)
- GI50 (K562): 1.23 µM (inactive)

Structure (SMILES): OCC1OC(NC(=S)NCCC(F)(F)C(F)(F)C(F)(F)C(F)(F)C(F)(F)C(F)(F)F)C(O)C(O)C1O (centres undefined)
- GI50 (DU-145): > 100 µM (inactive)
- GI50 (UACC-62): 67.9 µM (inactive)
- GI50 (SK-MEL-2): > 100 µM (inactive)
- GI50 (OVCAR-4): > 100 µM (inactive)
- GI50 (SNB-19): 69.8 µM (inactive)
- GI50 (MDA-MB-231): > 100 µM (inactive)
- GI50 (SF-268): > 100 µM (inactive)
- GI50 (LOX IMVI): 49.5 µM (inactive)
- GI50 (U-251): 37.3 µM (inactive)
- GI50 (MOLT-4): 21.6 µM (inactive)
- GI50 (CCRF-CEM): 38.3 µM (inactive)
- GI50 (COLO 205): > 100 µM (inactive)
- GI50 (HCT-15): > 100 µM
- GI50 (RPMI-8226): > 100 µM (inactive)
- GI50 (UO-31): > 100 µM (inactive)
- GI50 (RXF 393): 75.3 µM (inactive)
- GI50 (HOP-62): 71.4 µM (inactive)
- GI50 (OVCAR-3): > 100 µM (inactive)
- GI50 (HCC 2998): > 100 µM (inactive)
- GI50 (NCI/ADR-RES): > 100 µM (inactive)
- GI50 (MDA-N): > 100 µM (inactive)
- GI50 (M14): 56.4 µM (inactive)
- GI50 (Malme-3M): > 100 µM (inactive)
- GI50 (NCI-H23): > 100 µM (inactive)
- GI50 (SF-539): > 100 µM (inactive)
- GI50 (UACC-257): 54.7 µM (inactive)
- GI50 (HT-29): > 100 µM (inactive)
- GI50 (OVCAR-5): > 100 µM (inactive)
- GI50 (SK-MEL-28): 72.9 µM (inactive)
- GI50 (HCT-116): 80.4 µM (inactive)
- GI50 (HL-60): > 100 µM (inactive)
- GI50 (SNB-75): > 100 µM (inactive)
- GI50 (CAKI-1): > 100 µM (inactive)
- GI50 (786-0): > 100 µM (inactive)
- GI50 (TK-10): > 100 µM (inactive)
- GI50 (NCI-H460): > 100 µM (inactive)
- GI50 (A498): 18.5 µM (inactive)
- GI50 (Hs-578T): > 100 µM (inactive)
- GI50 (ACHN): 88.1 µM (inactive)
- GI50 (HOP-92): 29.2 µM (inactive)
- GI50 (PC-3): 43 µM (inactive)
- GI50 (A549): > 100 µM (inactive)
- GI50 (SF-295): 80.9 µM (inactive)
- GI50 (T47D): > 100 µM (inactive)
- GI50 (BT-549): > 100 µM (inactive)
- GI50 (MDA-MB-435): 58.6 µM (inactive)
- GI50 (SR): > 100 µM (inactive)
- GI50 (IGROV-1): 65.9 µM (inactive)
- GI50 (SW-620): > 100 µM (inactive)
- GI50 (SK-OV-3): > 100 µM (inactive)
- GI50 (SN12C): > 100 µM (inactive)
- GI50 (KM12): > 100 µM (inactive)
- GI50 (SK-MEL-5): 35.6 µM (inactive)
- GI50 (MCF7): > 100 µM (inactive)
- GI50 (K562): 28.2 µM (inactive)

Structure (SMILES): COc1cc(C(=O)/C=C/c2ccc(OCCSCCCCCCCCCCSCCOc3ccc(/C=C/C(=O)c4cc(OC)c(OC)c(OC)c4)cc3)cc2)cc(OC)c1OC
- GI50 (DU-145): > 100 µM (inactive)
- GI50 (UACC-62): > 100 µM (inactive)
- GI50 (SK-MEL-2): > 100 µM (inactive)
- GI50 (SNB-19): > 100 µM (inactive)
- GI50 (MDA-MB-231): > 100 µM (inactive)
- GI50 (SF-268): > 100 µM (inactive)
- GI50 (EKVX): > 100 µM (inactive)
- GI50 (LOX IMVI): > 100 µM (inactive)
- GI50 (U-251): > 100 µM (inactive)
- GI50 (MOLT-4): > 100 µM (inactive)
- GI50 (CCRF-CEM): > 100 µM (inactive)
- GI50 (COLO 205): > 100 µM (inactive)
- GI50 (HCT-15): > 100 µM
- GI50 (RPMI-8226): > 100 µM (inactive)
- GI50 (UO-31): > 100 µM (inactive)
- GI50 (RXF 393): > 100 µM (inactive)
- GI50 (HOP-62): > 100 µM (inactive)
- GI50 (OVCAR-3): > 100 µM (inactive)
- GI50 (HCC 2998): > 100 µM (inactive)
- GI50 (NCI-H522): > 100 µM (inactive)
- GI50 (NCI/ADR-RES): > 100 µM (inactive)
- GI50 (MDA-N): > 100 µM (inactive)
- GI50 (M14): > 100 µM (inactive)
- GI50 (Malme-3M): > 100 µM (inactive)
- GI50 (NCI-H23): > 100 µM (inactive)
- GI50 (SF-539): > 100 µM (inactive)
- GI50 (HT-29): > 100 µM (inactive)
- GI50 (OVCAR-5): > 100 µM (inactive)
- GI50 (SK-MEL-28): > 100 µM (inactive)
- GI50 (HCT-116): > 100 µM (inactive)
- GI50 (HL-60): > 100 µM (inactive)
- GI50 (SNB-75): > 100 µM (inactive)
- GI50 (CAKI-1): > 100 µM (inactive)
- GI50 (786-0): > 100 µM (inactive)
- GI50 (TK-10): > 100 µM (inactive)
- GI50 (A498): > 100 µM (inactive)
- GI50 (Hs-578T): > 100 µM (inactive)
- GI50 (ACHN): > 100 µM (inactive)
- GI50 (HOP-92): > 100 µM (inactive)
- GI50 (PC-3): > 100 µM (inactive)
- GI50 (A549): > 100 µM (inactive)
- GI50 (SF-295): > 100 µM (inactive)
- GI50 (T47D): > 100 µM (inactive)
- GI50 (BT-549): > 100 µM (inactive)
- GI50 (MDA-MB-435): > 100 µM (inactive)
- GI50 (SR): > 100 µM (inactive)
- GI50 (IGROV-1): > 100 µM (inactive)
- GI50 (SW-620): > 100 µM (inactive)
- GI50 (OVCAR-8): > 100 µM (inactive)
- GI50 (SN12C): > 100 µM (inactive)
- GI50 (KM12): > 100 µM (inactive)
- GI50 (SK-MEL-5): > 100 µM (inactive)
- GI50 (MCF7): > 100 µM (inactive)
- GI50 (K562): > 100 µM (inactive)
